Experimental data published in patent publication US4620014A, “2-furylbutyrolactones and methods for using same” (priority 1983, dated 1986).

Tests used:
[1] = Dissolution in bicarbonate buffered saline; assay type: physicochemical; details: 0.238 molar bicarbonate buffered saline (0.85%)
[2] = tested on: human lymphocytes; assay: In vitro lymphocyte stimulation assay in humans; assay type: cell-based; details: PHA and Con-A
Method: The purpose of this assay is to challenge lymphocytes in microcultures with one or more polyclonal mitogens at concentrations that will induce mitogenesis within 72 hours of stimulation.
In the mouse model, spleens are removed from different strains of mice and the spleen cells are teased free and suspended in RPMI-1640 tissue culture medium at a concentration of usually 1×10^7 ml. These cells are dispensed at a concentration of 5.0×10^5 cells per microculture well in a 96 well flat bottom 96 well tissue culture plate. All testing of the compounds of this invention or mitogens are done in replicates of 10. The cells are then treated with PHA, Con-A, specific antigens, or buffer only. If in vitro testing is done, varying concentrations of the compounds of this invention or buffer only are added to the cells as well. After treatment with the mitogens and/or compounds of this invention, the cells are incubated for 72 hours. The response of these cells to mitogens and/or the compounds of this invention is assessed using ^14 C-thymidine labeling on the fourth day at a concentration of 0.01 μCi/well. The labeled cells are harvested using a lymphocyte harvestor and placed onto fibrous paper discs. A scintillation cocktail is added to vials contaning the discs and the results are obtained using a LKB-liquid scintillation counter (Model 1216/Rackbeta II). The data is expressed as a ratio of the cpm of the mitogen stimulated group to the control (non-mitogen) treated group=lymphocyte stimulation index (LSI).
The lymphocyte stimulation assay may be performed directly on spleen cells obtained from various strains of mice not treated with the compounds of this invention or on lymphocytes obtained from […]. […] Alternatively, the mice may be treated in vivo with the compounds of this invention by intraperitoneal multi-dose schedules, followed by sacrifice and harvesting spleen lymphocytes. These cells are then tested for their response to polyclonal mitogens or specific antigens used to immunize the mice. […]

[3] = tested on: L-1210 leukemia; assay: Anti-cancer study, L-1210 leukemia in BDF1 mice; assay type: in vivo, mouse; details: seven days
Description: Mice of the BDF1 strain are given an i.p. inoculation of 10^6 L-1210 leukemia cells on day 0. Twenty-four hours later, groups of 7 mice each are started on a […] treatment regimen of various doses of the compounds of this invention. The experiment is continued according to the guidelines provided under the National Cancer Institute protocol for screening new anti-cancer agents and T/C ratios (median or mean survival time of treated groups over median or mean survival time of controls) are calculated. A T/C value ≥1.25 (or 125%) is considered significant anticancer activity.
(§1) Mice of the BDF1 strain, inoculated with L-1210 leukemia cells, are treated for seven days with either 25, 50, 100, 200 or 400 mg/kg of Cpd. 1 or just buffer. The National Cancer Institute protocol for screening new anti-cancer agents is followed and T/C ratios are calculated.
as §1, with “either 100” for “either 25, 50, 100, 200 or 400”, “Cpd. 1, 20 mg/kg of 5-fluorouracil (5-FU), a known anti-cancer agent,” for “Cpd. 1”

[4] = tested on: CD rats; details: 14 days
Method: (§2) Single oral dose LD50 in CD-1 mice and CD rats, obtained from Charles River U.K. Ltd., for Cpd. 1 is determined. […] Cpd. 1, dissolved in buffer, or just buffer is administered orally and the mice and rats are observed for 14 days after dosing. After 14 days, the animals are sacrified and necropsy is performed to check for gross evidence of toxicity.

[5] = tested on: CD-1 mice; details: 14 days
Method: as §2

For Cc1ccc(C2(O)C(=O)OC3C(O)COC32O)o1.Cc1ccc(C2(O)C(=O)OC3C(O)COC32O)o1.O=C1CCC(=O)O1 (stereo not drawn) [Cpd. 1], which dissolution [1] is on record?
The dissolution was “dissolves completely”.

And the “lymphocyte response, very low doses” value ([2]; 1 and 0.1 μg/ml)?
The value was “markedly increased lymphocyte response”.

And the “lymphocyte response, high dose” value ([2]; 100 and 50 μg/ml)?
The value was “high dose anti-proliferative effect”.

What about the “Median Survival Time” value ([3]; 25 mg/kg) of the same molecule?
Its value is 20 days.

And the “Median Survival Time” value ([3]; 50 mg/kg)?
The value was 21 days.

What about the “Median Survival Time” value ([3]; 100 mg/kg) of the same molecule?
Its value is 30 days.

What about the “Median Survival Time” value ([3]; 200 mg/kg) of the same molecule?
Its value is 30 days.

And the “Median Survival Time” value ([3]; 400 mg/kg)?
The value was 25 days.

And the “deaths or signs of toxicity” value ([4]; single oral 5 g/kg)?
The value was “No deaths or signs of toxicity”.

And the LD50 ([4]; single oral dose)?
The LD50 was > 5000 mg/kg.

What about the “deaths or signs of toxicity” value ([5]; single oral 5 g/kg) of the same molecule?
The value was “No deaths or signs of toxicity”.

And the LD50 ([5]; single oral dose)?
The LD50 was > 5000 mg/kg.
